Test results as given in US12428432B2, “Thienopyrimidine derivatives having stereo configurations and use thereof in medicine” (SUNSHINE LAKE PHARMA CO., LTD., priority 2019, dated 2025).
Where two headings read alike, the source gives them in different places.

Tests used:
[1] = Liver microsome stability test; type: in vitro ADME; settings: mouse liver microsomes, Conc. 1 μM; for half-life at 1 μM: male, CD-1; for Remaining (%) (NCF = 60 min): no cofactor (buffer instead of NADPH); for Remaining (%) (T = 60 min): with NADPH
Description: Male CD-1 mouse liver microsomes, purchased from BD Gentest.
Preparation of stock solution: a certain amount of test compound of A13 and Example 1 were weighed to prepare a stock solution with a concentration of 10 mM with DMSO, and stored in a refrigerator at −20° C.
Preparation of NADPH solution: a certain amount of NADPH to be tested was weighed and prepared a solution with a concentration of 6 mM with 0.1 M potassium phosphate buffer (5 mg of NADPH was weighed and added to 1 mL of potassium phosphate buffer, the concentration was equivalent to 6 mM).
Preparation of compound dosing solution: 100 μM dosing solution: 5 μL of 10 mM stock solution was added to 495 μL of acetonitrile:water (1:1); 30 μM dosing solution: 60 μL of 100 μM dosing solution was added to 140 μL of 0.1 M potassium phosphate buffer; 1.5 μM dosing solution: 25 μL of 30 μM dosing solution and 18.8 μL (20 mg/mL) of liver microsomes were added to 456.2 μL of 0.1 M potassium phosphate buffer, one for each species.
μ30 μL of 1.5 μM dosing solution of the compound was added to a 96-well plate, 150 μL or 200 μL of acetonitrile internal standard was added immediately to the plate, then 15 μL of NADPH solution (6 mM) was added to the plate, the mixture was mixed well and placed in a 4° C. refrigerator as the initial 0 point sample, each drug was made two holes in parallel.
30 μL of 1.5 μM dosing solution was added to positions set at different time points in the 96-well plate, each drug was made two holes in parallel, and the pleat was preheated at 37° C. for 10 min.
After pre-incubation, 15 μL of NADPH solution (6 mM) was added to the well set at the time point of 60 min, at the time point of NCF60, 15 μL of potassium phosphate buffer salt solution was added at the same time to start the reaction and start timing. Then after 40 min, 15 μL of NADPH solution was added to the well set at 20 min. After 20 min, the incubation was over. 150 or 200 μL of acetonitrile internal standard was added to the positions set at all time points. The plate was centrifuged at 4000 rpm for 5 min, 50 μL supernatant was taken out and diluted with 150 μL water for sample analysis.
The initial 0 point was used as 100%, the relative content of the drug at each time point was calculated. GraphPad Prism5 software was used to plot the “relative content of the drug” versus “incubation time” to calculate the half-life of the drug and calculate the intrinsic clearance rate.

[2] = Tissue distribution (liver/plasma) in mice after intragastric administration, LC-MS/MS; type: in vivo, C57BL/6 mice; settings: C57BL/6 male mice; for Kp at 0.5 h / Kp at 1 h / Kp at 2 h / concentration at 0.5 h / concentration at 1 h / concentration at 2 h: mouse, oral, 5 ml/kg; for Kp at 0.5 h / Kp at 1 h / Kp at 2 h: liver/plasma; for Kp at 0.5 h: read-out: Partition ratios of liver and plasma 0.5 h; for Kp at 1 h: read-out: Partition ratios of liver and plasma 1 h; for Kp at 2 h: read-out: Partition ratios of liver and plasma 2 h
Description: C57BL/6 mice were used as the test animals, the LC-MS/MS method was used to determine the drug concentration in plasma and liver at different times after the mice were administered intragastrically the compounds of Examples 1 to 3 and A13. Pharmacokinetic properties of the compounds of the present invention in mice were studied.
The prescriptions of A13, Example 1 and Example 2 were: 5% DMSO+5% Kolliphor HS15+90% Saline
The prescription of Example 3 was: 10% DMSO+10% Kolliphor HS15+80% Saline
Healthy adult C57BL/6 male mice, purchased from Hunan Slack Jingda Experimental Animal Co., Ltd., with an animal weight of 18-24 g, were administered intragastrically at a dosage of […] and a volume of 10 ml/kg.
Bloods were collected from the orbit at different time points, and the whole blood samples were placed in an anticoagulation tube containing EDTA-K2; the plasma was separated by centrifugation (centrifugation conditions: 12000 rpm, 2 min) and the upper plasma sample was collected and placed into a sample tube.
Animals were dissected and collected livers at different time points, a certain mass of liver tissue was weighed, 5 times the volume (m/V) of methanol solution was added to the homogenization tube, then homogenized at 60 hz for 2 minutes and centrifuged at 4° C. for 2 minutes, the supernatant was taken to obtain the liver homogenate.
LC-MS/MS was used to analyze the content of the test compounds in the plasma and liver of the mice after the compounds were administered intragastrically.

ACC2 = ACC2 (Homo sapiens (Human), UniProt O00763); experiment: In vitro inhibitory activity test of acetyl-CoA carboxylase (ADP-Glo Kinase Analysis), ACC2; type: biochemical
ACC2, sequence (O00763 whole entry, species assumed): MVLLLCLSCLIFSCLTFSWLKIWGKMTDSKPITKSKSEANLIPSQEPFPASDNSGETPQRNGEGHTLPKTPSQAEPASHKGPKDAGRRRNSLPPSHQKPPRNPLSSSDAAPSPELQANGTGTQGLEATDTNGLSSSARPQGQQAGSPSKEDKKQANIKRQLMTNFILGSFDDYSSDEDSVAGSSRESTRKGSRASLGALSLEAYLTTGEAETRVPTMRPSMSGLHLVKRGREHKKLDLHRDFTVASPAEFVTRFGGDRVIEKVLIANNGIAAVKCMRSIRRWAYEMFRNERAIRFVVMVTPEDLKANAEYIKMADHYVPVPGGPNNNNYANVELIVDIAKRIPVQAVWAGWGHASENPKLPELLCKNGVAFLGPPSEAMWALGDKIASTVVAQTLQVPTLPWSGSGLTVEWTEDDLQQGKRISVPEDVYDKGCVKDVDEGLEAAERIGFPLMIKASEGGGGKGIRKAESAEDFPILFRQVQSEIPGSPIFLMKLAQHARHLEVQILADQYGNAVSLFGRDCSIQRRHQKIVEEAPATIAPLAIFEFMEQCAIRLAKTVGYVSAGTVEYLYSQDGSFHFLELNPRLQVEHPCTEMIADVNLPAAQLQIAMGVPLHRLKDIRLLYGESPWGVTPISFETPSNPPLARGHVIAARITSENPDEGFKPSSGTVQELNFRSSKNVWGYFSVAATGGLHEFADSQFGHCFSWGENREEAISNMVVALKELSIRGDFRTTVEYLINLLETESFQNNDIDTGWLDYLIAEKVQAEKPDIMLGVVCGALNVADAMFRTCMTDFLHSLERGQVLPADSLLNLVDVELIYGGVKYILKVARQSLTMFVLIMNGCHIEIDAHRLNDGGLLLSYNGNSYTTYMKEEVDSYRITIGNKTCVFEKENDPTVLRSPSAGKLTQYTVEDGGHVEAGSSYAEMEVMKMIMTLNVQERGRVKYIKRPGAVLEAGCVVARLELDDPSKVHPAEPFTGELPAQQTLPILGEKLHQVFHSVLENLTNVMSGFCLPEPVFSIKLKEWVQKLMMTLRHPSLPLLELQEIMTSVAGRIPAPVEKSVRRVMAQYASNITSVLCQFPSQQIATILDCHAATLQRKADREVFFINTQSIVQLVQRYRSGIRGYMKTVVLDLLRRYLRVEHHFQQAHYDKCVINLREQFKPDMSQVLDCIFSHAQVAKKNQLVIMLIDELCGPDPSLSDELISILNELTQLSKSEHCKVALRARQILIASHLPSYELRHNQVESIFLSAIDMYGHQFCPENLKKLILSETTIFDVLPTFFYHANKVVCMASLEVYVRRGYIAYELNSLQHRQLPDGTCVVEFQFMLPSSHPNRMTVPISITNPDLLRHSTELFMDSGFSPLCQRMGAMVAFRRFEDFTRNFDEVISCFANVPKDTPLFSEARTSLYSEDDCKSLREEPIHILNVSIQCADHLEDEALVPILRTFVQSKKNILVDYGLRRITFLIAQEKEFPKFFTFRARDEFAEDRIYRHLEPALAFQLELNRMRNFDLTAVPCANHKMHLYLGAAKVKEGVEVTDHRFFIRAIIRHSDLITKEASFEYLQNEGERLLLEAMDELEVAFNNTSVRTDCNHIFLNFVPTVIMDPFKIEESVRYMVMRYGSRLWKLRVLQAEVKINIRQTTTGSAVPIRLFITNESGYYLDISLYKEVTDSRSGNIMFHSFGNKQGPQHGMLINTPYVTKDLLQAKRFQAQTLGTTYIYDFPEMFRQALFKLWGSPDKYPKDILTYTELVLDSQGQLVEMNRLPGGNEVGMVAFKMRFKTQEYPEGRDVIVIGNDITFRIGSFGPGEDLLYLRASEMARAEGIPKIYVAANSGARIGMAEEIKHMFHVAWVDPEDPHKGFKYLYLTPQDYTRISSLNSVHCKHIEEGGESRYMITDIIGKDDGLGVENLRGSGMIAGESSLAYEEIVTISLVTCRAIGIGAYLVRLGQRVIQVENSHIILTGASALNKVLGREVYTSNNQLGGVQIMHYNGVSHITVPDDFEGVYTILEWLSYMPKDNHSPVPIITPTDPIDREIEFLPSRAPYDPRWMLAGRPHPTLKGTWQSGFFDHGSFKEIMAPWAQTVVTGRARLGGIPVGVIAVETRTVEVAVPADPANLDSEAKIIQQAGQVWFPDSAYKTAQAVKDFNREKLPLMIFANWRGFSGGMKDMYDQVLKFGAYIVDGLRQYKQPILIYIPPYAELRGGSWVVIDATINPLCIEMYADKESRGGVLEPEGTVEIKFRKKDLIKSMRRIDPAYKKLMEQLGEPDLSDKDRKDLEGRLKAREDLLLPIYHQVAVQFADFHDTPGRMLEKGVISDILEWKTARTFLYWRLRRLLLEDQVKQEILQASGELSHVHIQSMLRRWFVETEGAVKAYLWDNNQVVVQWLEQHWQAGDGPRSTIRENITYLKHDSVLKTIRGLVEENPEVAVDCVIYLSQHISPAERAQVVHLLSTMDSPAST
Description: (§1) The in vitro inhibitory effects of the compounds on ACC1 or ACC2 were tested by ADP-Glo™ Kinase Analysis Kit from Promega Company. The ADP-Glo™ Kinase Analysis was a luminescent ADP detection analysis, which was used to measure enzyme activity by quantifying the amount of ADP produced during the enzyme reaction. The analysis was performed with two steps: first, after the enzyme reaction, ADP-Glo™ reagent was added to stop the reaction and deplete the remaining ATP; then, a kinase detection reagent was added to simultaneously convert ADP to ATP and the newly synthesized ATP was measured using the luciferase/luciferin reaction. The luminescence can be correlated to the ADP concentration by using the ATP to ADP conversion curve.
(§2) The specific steps are as follows: • a. 4.5 μL/well of ACC1/ACC2 working solution (2.22 nM) was added to a 384-well reaction plate (PerkinElmer, 6007290); • b. The compound (10 mM stock solution) was diluted 500 times to 20 μM with 100% DMSO, and diluted in a ratio of 1:3 in a 384 dilution plate (3657, corning). The gradient concentrations of the compound were 20, 6.67, 2.22 0.74, 0.25, 0.082, 0.027, 0.009, 0.003, 0.001, 0 μM; • c. 0.5 μL/well of the compound solution (prepared in step b) was transferred to the 384-well reaction plate (prepared in step a), then plate was centrifuged at 1000 rpm and incubated at 25° C. for 15 minutes; • d. […] Relative luminescence unit (RLU) was read on an Envision multifunction plate reader. […]
(§3) The average values of each concentration and the data of the positive and negative controls were calculated, as well as the standard deviation. The percentage of inhibition was calculated by the formula: 100×(average negative control−compound)/(average negative control−average positive control). The IC50 for each compound was calculated by fitting the data with a nonlinear regression equation: Y=Bottom+(Top−Bottom)/(1+10^((Log IC50−X)×HillSlope)), wherein X is the log of compound concentration and Y is the percentage of inhibition.

ACC1 = ACC1 (Homo sapiens (Human), UniProt Q13085); experiment: In vitro inhibitory activity test of acetyl-CoA carboxylase (ADP-Glo Kinase Analysis), ACC1; type: biochemical
Description: as §1, §2, §3

[3] = liver, read-out: Average tissue concentrations (liver) 0.5 h
[4] = liver, 1 h, read-out: Average tissue concentrations (liver) 1 h
[5] = liver, read-out: Average tissue concentrations (liver) 2 h
[6] = plasma, read-out: Average concentration (plasma) 0.5 h
[7] = plasma, 1 h, read-out: Average concentration (plasma) 1 h
[8] = plasma, read-out: Average concentration (plasma) 2 h

Row | half-life at 1 μM [1] | ClHep [1] | Clin vivo [1] | ER [1] | Remaining (%) (NCF = 60 min) [1] | Remaining (%) (T = 60 min) [1] | Kp at 0.5 h [2] | Kp at 1 h ([2]; 1 h) | Kp at 2 h [2] | concentration at 0.5 h [2, 3] | concentration at 1 h [2, 4] | concentration at 2 h [2, 5] | concentration at 0.5 h [2, 6] | concentration at 1 h [2, 7] | concentration at 2 h [2, 8] | IC50 (ACC2) | Partition ratios of liver and plasma 0.5 h [2] | Partition ratios of liver and plasma 2 h [2] | Average tissue concentrations (liver) 0.5 h ([2]; liver) | IC50 (ACC1) | other results | SMILES
1 | 1.49 h | 60.9 mL/min/kg | 36.3 mL/min/kg | 0.4 | 81.0% | 63.4% | 86 | 130 | 170 | 61500 ng/g | 33300 ng/g | 14000 ng/g | 717 ng/g | 249 ng/g | 82.8 ng/g | – | – | – | – | – | – | COc1ccccc1C(Cn1c(=O)n(C(C)(C)C(=O)O)c(=O)c2c(C)c(-c3ncco3)sc21)OC1CC2COCC2C1 (racemic) [Example A13, reference compound]
2 | 2.42 h | 38.0 mL/min/kg | 9.6 mL/min/kg | 0.1 | 90.6% | 71.9% | – | – | – | – | – | – | – | – | – | 3.65 nM | 190 | 600 | 75000 ng/g | 1.42 nM | Partition ratios of liver and plasma 1 h ([2]; 1 h): 140; Average tissue concentrations (liver) 1 h ([2]; liver, 1 h): 48300 ng/g; Average tissue concentrations (liver) 2 h ([2]; liver): 35500 ng/g; Average concentration (plasma) 0.5 h ([2]; plasma): 391 ng/g; Average concentration (plasma) 1 h ([2]; plasma, 1 h): 336 ng/g; Average concentration (plasma) 2 h ([2]; plasma): 59.1 ng/g | COc1ccccc1[C@H](Cn1c(=O)n(C(C)(C)C(=O)O)c(=O)c2c(C)c(-c3ncco3)sc21)OC1C[C@H]2COC[C@@H]2C1 [Example 1, 2-[1-[(2R)-2-[[(3aR,6aR)-3,3a,4,5,6,6a-hexahydro-1H-cyclopenta[c]furan-5-yl]oxy]-2-(2-methoxyphenyl)ethyl]-5-methyl-6-oxazol-2-yl-2,4-dioxo-thieno[2,3-d]pyrimidin-3-yl]-2-methyl-propionic acid]
3 | – | – | – | – | – | – | 190 | 120 | 180 | 70400 ng/g | 40600 ng/g | 16900 ng/g | 373 ng/g | 351 ng/g | 96.4 ng/g | 3.82 nM | – | – | – | 1.09 nM | – | COc1ccccc1[C@H](Cn1c(=O)n(C(C)(C)C(=O)O)c(=O)c2c(C)c(-c3ncco3)sc21)OC1C[C@@H]2COC[C@H]2C1 [Example 2, 2-[1-[(2R)-2-[[(3aS,6aS)-3,3a,4,5,6,6a-hexahydro-1H-cyclopenta[c]furan-5-yl]oxy]-2-(2-methoxyphenyl)ethyl]-5-methyl-6-oxazol-2-yl-2,4-dioxo-thieno[2,3-d]pyrimidin-3-yl]-2-methyl-propionic acid]
4 | – | – | – | – | – | – | – | – | – | – | – | – | – | – | – | 2.43 nM | 122 | 104 | 75500 ng/g | 0.23 nM | Average tissue concentrations (liver) 2 h ([2]; liver): 26500 ng/g; Average concentration (plasma) 0.5 h ([2]; plasma): 669 ng/g; Average concentration (plasma) 2 h ([2]; plasma): 253 ng/g | COc1ccccc1[C@H](Cn1c(=O)n(C(C)(C)C(=O)O)c(=O)c2c(C)c(-c3ncco3)sc21)O[C@H]1C[C@H]2COC[C@H]2C1 [Example 3, 2-[1-[(2R)-2-[[(3aR,6aS)-3,3a,4,5,6,6a-hexahydro-1H-cyclopenta[c]furan-5-yl]oxy]-2-(2-methoxyphenyl)ethyl]-5-methyl-6-oxazol-2-yl-2,4-dioxo-thieno[2,3-d]pyrimidin-3-yl]-2-methyl-propionic acid]
